Molecular target: recombinant human Vps34 (Homo sapiens, UniProt Q8NEB9)
Experiment: Vps34 KinaseGlo assay
Type: biochemical
Settings: KinaseGlo luminescence ATP detection; PI/OG substrate; 1 μM ATP; room temperature; 8 concentrations, n=2
Protocol: It was then resuspended in 3% OctylGlucoside by vortexing and stored at 4° C. 5 μL of a mix of PI/OG with recombinant human Vps34 were added. Kinase reactions were started by addition of 5 μl of ATP-mix containing in a final volume 10 μL 10 mM TRIS-HCl pH 7.5, 3 mM MgCl2, 50 mM NaCl, 0.05% CHAPS, 1 mM DTT and 1 μM ATP, and occurred at room temperature. Reactions were stopped with 10 μl of KinaseGlo and plates were read 10 minutes later in a Synergy2 reader using an integration time of 0.1 seconds per well.

Chain of recombinant human Vps34 (Q8NEB9 whole entry): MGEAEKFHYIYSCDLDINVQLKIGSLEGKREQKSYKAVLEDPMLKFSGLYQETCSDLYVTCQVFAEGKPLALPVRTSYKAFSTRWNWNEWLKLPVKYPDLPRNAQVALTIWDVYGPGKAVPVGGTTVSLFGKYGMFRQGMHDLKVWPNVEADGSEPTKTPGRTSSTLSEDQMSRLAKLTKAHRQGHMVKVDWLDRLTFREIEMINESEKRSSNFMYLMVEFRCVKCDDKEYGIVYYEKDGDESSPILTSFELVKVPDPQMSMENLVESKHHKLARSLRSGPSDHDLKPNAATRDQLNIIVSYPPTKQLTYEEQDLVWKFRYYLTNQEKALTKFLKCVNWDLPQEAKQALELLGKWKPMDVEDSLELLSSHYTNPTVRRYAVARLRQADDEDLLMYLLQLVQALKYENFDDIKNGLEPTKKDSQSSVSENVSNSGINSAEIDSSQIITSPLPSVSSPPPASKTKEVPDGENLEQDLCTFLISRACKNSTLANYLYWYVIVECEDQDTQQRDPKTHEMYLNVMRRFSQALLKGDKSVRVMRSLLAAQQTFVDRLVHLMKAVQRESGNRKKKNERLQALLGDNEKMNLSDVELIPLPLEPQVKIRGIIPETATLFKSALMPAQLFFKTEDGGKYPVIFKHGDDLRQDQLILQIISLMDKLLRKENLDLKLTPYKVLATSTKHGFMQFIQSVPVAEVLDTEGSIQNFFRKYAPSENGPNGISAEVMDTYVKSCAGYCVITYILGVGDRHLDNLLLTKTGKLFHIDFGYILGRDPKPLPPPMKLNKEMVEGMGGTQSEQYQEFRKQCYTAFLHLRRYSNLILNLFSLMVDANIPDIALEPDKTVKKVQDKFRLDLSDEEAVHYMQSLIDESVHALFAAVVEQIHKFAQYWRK

Row | IC50 [nM] | Structure (SMILES)
1 | 138 | CC(=O)Nc1ccc(Nc2nccc(-c3cnc(NCC(C)(C)O)nc3CC3CC3)n2)cc1 [Example 16f, N-(4-(4′-(cyclopropylmethyl)-2′-(2-hydroxy-2-methylpropylamino)-4,5′-bipyrimidin-2-ylamino)phenyl)acetamide]
2 | 62 | CC(=O)Nc1ccc(Nc2nccc(-c3cnc(N)nc3CC3CC3)n2)cc1 [Example 15n, N-(4-(2′-amino-4′-(cyclopropylmethyl)-4,5′-bipyrimidin-2-ylamino)phenyl)acetamide]
3 | 106 | CSc1ncc(-c2ccnc(Nc3ccncc3)n2)c(CC2CC2)n1 [Example 11, 4′-(Cyclopropylmethyl)-2′-(methylsulfanyl)-N-pyridin-4-yl-4,5′-bipyrimidin-2-amine]
4 | 4000 | COc1ncc(-c2ccnc(NC3CCC(O)CC3)n2)c(CC2CC2)n1 (stereo not drawn) [Example 6f, 4-(4′-(cyclopropylmethyl)-2′-methoxy-4,5′-bipyrimidin-2-ylamino)cyclohexanol]
5 | 53 | Nc1ncc(-c2ccnc(Nc3ccc(F)cc3)n2)c(CC2CC2)n1 [Example 15j, 4′-(cyclopropylmethyl)-N^2-(4-fluorophenyl)-4,5′-bipyrimidine-2,2′-diamine]
6 | 31 | Nc1ncc(-c2ccnc(Nc3ccncc3)n2)c(C(F)(F)F)n1 [Example 22, N2-(pyridin-4-yl)-4′-(trifluoromethyl)-4,5′-bipyrimidine-2,2′-diamine]
7 | 48 | Cc1cc(Nc2nccc(-c3cnc(N)nc3CC3CC3)n2)on1 [Example 15h, 4′-Cyclopropylmethyl-N^2-(3-methyl-isoxazol-5-yl)-[4,5′]bipyrimidinyl-2,2′-diamine]
8 | 122 | Nc1ncc(-c2ccnc(NCCc3c[nH]c4ccccc34)n2)c(CC2CC2)n1 [Example 15p, N^2-(2-(1H-indol-3-yl)ethyl)-4′-(cyclopropylmethyl)-4,5′-bipyrimidine-2,2′-diamine]
9 | 264 | Nc1ncc(-c2ccnc(N[C@H]3CC[C@H](O)CC3)n2)c(CC2CC2)n1 [Example 6b, (1r, 4r)-4-(2′-amino-4′-(cyclopropylmethyl)-4,5′-bipyrimidin-2-ylamino)cyclohexanol]
10 | 862 | CNc1ncc(-c2ccnc(Nc3ccc(OC)c(OC)c3)n2)c(CC2CC2)n1 [Example 14q, 4′-(cyclopropylmethyl)-N^2-(3,4-dimethoxyphenyl)-N^2′-methyl-4,5′-bipyrimidine-2,2′-diamine]
11 | 111 | CNc1ncc(-c2ccnc(N[C@H]3CC[C@H](O)CC3)n2)c(CC2CC2)n1 [Example 6e, (1r, 4r)-4-(4′-(cyclopropylmethyl)-2′-(methylamino)-4,5′-bipyrimidin-2-ylamino)cyclohexanol]
12 | 924 | Nc1ncc(-c2ccnc(Nc3nncs3)n2)c(CC2CC2)n1 [Example 15i, 4′-(cyclopropylmethyl)-N^2-(1,3,4-thiadiazol-2-yl)-4,5′-bipyrimidine-2,2′-diamine]
13 | 196 | Nc1ncc(-c2ccnc(Nc3ccccn3)n2)c(CC2CC2)n1 [Example 15e, 4′-(cyclopropylmethyl)-N^2-(pyridin-2-yl)-4,5′-bipyrimidine-2,2′-diamine]
14 | 781 | Nc1ncc(-c2ccnc(NCc3ccco3)n2)c(CC2CC2)n1 [Example 15k, 4′-(cyclopropylmethyl)-N^2-(furan-2-ylmethyl)-4,5′-bipyrimidine-2,2′-diamine]
15 | 7 | Nc1ncc(-c2ccnc(Nc3ccncc3)n2)c(COCc2ccccc2)n1 [Example 13, 4′-Benzyloxymethyl-N^2-pyridin-4-yl-[4,5′]bipyrimidinyl-2,2′-diamine]
